Ends that are not written are not given here.
Legend:
[1] = system: CD14+ cells from patients and healthy donors PBMC; assay: Flow cytometry of IL8+ production in CD14+ cells of PBMC; assay type: cell-based, human; settings: for number of CD14+IL8+ monocytes: cirrhotic monocytes vs control-treated cells from healthy donors, 10 mM 3-MA, 10 μM DPI, 30 μM N8, 4 hrs, FIG. 1B; for inflammatory signature in blood monocytes: healthy donors and patients, prominent increase in cells from patients, 4 hrs at 37° C., FIG. 1B and 1C
Description: FIG. 1: Inhibition of LAP components enhances the inflammatory signature in blood monocytes from patients with cirrhosis. (A). Inverse correlation between circulating C-Reactive Protein (CRP) levels and the number of LC3+ pHrodo+ phagosomes containing E. Coli bioparticles in blood monocytes from patients with cirrhosis (n=14). *p=0.005, r=-0.7 for LC3+ pHrodo+ phagosomes number vs CRP. (B). PBMC were incubated for 4 hrs at 37° C. with either vehicle, 10 mM 3-MA, 10 μM DPI, 30 μM N8 or control mutant […] peptides Percentage of IL8+ production in CD14+ cells from patients (n=8) and healthy donors (n=6) PBMC. (C). RT-PCR analysis of inflammatory gene expression in blood monocytes from healthy donors (n=6-8) and cirrhotic patients (n=6-11). Results are expressed as fold over respective control. *p<0.05, **p<0.001 for healthy vs cirrhotic. Statistical analysis was performed using Spearman correlation test (A), Mann-Whitney (b, for comparison between healthy and cirrhosis) and Wilcoxon matched-pairs signed rank test (B, for treatment). Peripheral blood mononuclear cells (PBMC) and monocyte isolation. PBMC were prepared from the blood of cirrhotic patients and healthy donors, using Ficoll density gradient centrifugation (Ficoll PaqueTM-plus, GE Healthcare, 17-1440-02), as previously described^43. Cell treatment. Human monocytes, THP1-XBlueTM-CD14 (Invivogen, Catalog #[…] THP1-FcγRIIA+-CD14+(kindly provided by Novimmune) monocytes were used. When indicated cells were exposed to either 30 μM chloroquine diphosphate (Sigma, C6628), 10 mM 3-Methyladenine (3-MA, Sigma, M9281-100 mg), 10 mM Diphenyleneiodonium chloride (DPI, Sigma, D2926-10 mg), or 10 mg/ml IVIg (Privigen, 100 mg/ml) for 4 hrs at 37° C., as indicated. […] In some experiments, cells were exposed to the preformed complex (10 μg/ml of mouse anti-hFcγRII mAb (clone AT-10, Santa Cruz, sc-13527) F(ab')2 fragments+20 μg/ml goat anti-mouse anti-kappa F(ab')2 fragments (Southern Biotech, 1052-01) or to 100 μg/ml of anti-hFcγRIIA mAb F(ab')2 fragments (clone IV.3), purified as we previously described^26. Flow cytometry. For surface and intracellular staining, PBMC (1×10^6) were centrifuged at 4° C. at 500 g for 5 min and stained in the dark for 30 min at 4° C. in flow cytometry staining buffer (5% FCS-PBS) containing fluorochrome-conjugated antibodies (APC-CD14, clone HCD14, Biolegend, 325608), CD11b-PE-vio 770 (clone REA592, Miltenyi Biotec, 130-109-287), CD16 Brilliant violet 605 (clone3G8, 302040, Biolegend) and FITC-FcγRIIA (clone […] Technologies, 60012FI). […] Data acquisition was performed using a BD Biosciences LSR Fortessa cytometer and data were analysed using FlowJo analysis software (Tree Star).

[2] = system: blood monocytes from healthy donors and cirrhotic patients; assay: RT-PCR analysis of inflammatory gene expression in blood monocytes; assay type: cell-based, human; settings: cirrhotic monocytes vs control-treated cells from healthy donors; 10 mM 3-MA, 10 μM DPI, 30 μM N8; FIG. 1C
Description: FIG. 1: Inhibition of LAP components enhances the inflammatory signature in blood monocytes from patients with cirrhosis. (A). Inverse correlation between circulating C-Reactive Protein (CRP) levels and the number of LC3+ pHrodo+ phagosomes containing E. Coli bioparticles in blood monocytes from patients with cirrhosis (n=14). *p=0.005, r=-0.7 for LC3+ pHrodo+ phagosomes number vs CRP. (B). PBMC were incubated for 4 hrs at 37° C. with either vehicle, 10 mM 3-MA, 10 μM DPI, 30 μM N8 or control mutant […] peptides Percentage of IL8+ production in CD14+ cells from patients (n=8) and healthy donors (n=6) PBMC. (C). RT-PCR analysis of inflammatory gene expression in blood monocytes from healthy donors (n=6-8) and cirrhotic patients (n=6-11). Results are expressed as fold over respective control. *p<0.05, **p<0.001 for healthy vs cirrhotic. Statistical analysis was performed using Spearman correlation test (A), Mann-Whitney (b, for comparison between healthy and cirrhosis) and Wilcoxon matched-pairs signed rank test (B, for treatment). Human blood monocytes. Human monocytes were isolated from freshly isolated PBMC, using EasySep human monocyte enrichment kit (STEMCELL Technologies, 19058), and CD14+CD16+ monocytes were isolated by immunomagnetic negative selection according to the manufacturer's instructions. Cell treatment. […]

Molecule	number of CD14+IL8+ monocytes [1]	inflammatory signature in blood monocytes [1]	gene expression of cytokines and chemokines [2]
Cn1cnc(N)c2ncnc1-2 [3-MA, 3-Methyladenine]	significantly higher	enhanced	significantly higher
N8 peptide: Tat-conjugated peptide of eight N-terminal amino acids (3-10) of p22phox that blocks the Rubicon-p22phox interaction (QIEWAMWA; also: Tat cell-penetrating peptide conjugate, attachment not given here; UniProt P13498 3-10, looked up, fragment)	significantly higher	enhanced	significantly higher
